Measurements taken from ChEMBL document CHEMBL1124797, “A model for the antagonist binding site on the adenosine A1 receptor, based on steric, electrostatic, and hydrophobic properties” (J Med Chem, 1990).

Biological target: T1, Adenosine receptor A1 (Rattus norvegicus, UniProt P25099)
T1 sequence (P25099 whole entry): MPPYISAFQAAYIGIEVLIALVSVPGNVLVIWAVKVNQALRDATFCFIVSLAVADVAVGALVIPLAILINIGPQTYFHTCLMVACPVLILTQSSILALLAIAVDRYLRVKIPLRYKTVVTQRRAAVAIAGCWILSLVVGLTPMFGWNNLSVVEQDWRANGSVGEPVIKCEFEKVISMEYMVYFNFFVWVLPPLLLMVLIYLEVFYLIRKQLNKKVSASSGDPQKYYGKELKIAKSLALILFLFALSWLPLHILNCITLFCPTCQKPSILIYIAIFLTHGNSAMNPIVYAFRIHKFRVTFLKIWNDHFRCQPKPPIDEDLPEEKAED
Test: Inhibition of [3H]CHA binding to Adenosine A1 receptor in rat brain membranes
Assay type: cell membranes

| Ki [nM] | Structure (SMILES) |
| --- | --- |
| 4.8 | CCCn1c(=O)c2[nH]c(-c3ccc(Cl)cc3N)nc2n(CCC)c1=O |
| 310 | Cc1nn(C)c2c(=O)[nH]c(-c3ccc(Cl)cc3N)nc12 |
